# Experimental data reported in patent US9642861B2, “Methods of treating oral mucositis” (priority 2006, dated 2017).
# “Also recorded” adds a separate entry of the source.
# Tested on: oral mucositis induced in hamsters by acute radiation (40 Gy to left buccal cheek pouch)
# Experiment: ACT-02 (Example 1): acute radiation model of oral mucositis in hamsters, mucositis scoring
# Type: in vivo, Syrian Golden Hamsters
# Set-up: peak mucositis score (mean daily score): scale not given here
# Excerpt: The objective of this study is to evaluate the effect of M40403, administered by either ip or topical routes, with 2 different schedules, on the frequency, severity and duration of oral mucositis induced in hamsters by acute radiation.
# The acute radiation model in hamsters, developed by the Principal Investigator, has proven to be an accurate, efficient and cost-effective technique to provide a preliminary evaluation of anti-mucositis compounds (9). The course of mucositis in this model is well defined and results in peak scores approximately 14-16 Days following radiation. The acute model has little systemic toxicity, resulting in few hamster deaths, thus permitting the use of smaller groups (N=7-8) for initial efficacy studies. It has also been used to study specific mechanistic elements in the pathogenesis of mucositis. Molecules that show efficacy in the acute radiation model may be further evaluated in the more complex models of fractionated radiation, chemotherapy, or concomitant therapy.
# In this study, an acute radiation dose of 40 Gy on day 0 was administered locally to the cheek pouch. Clinically significant mucositis was observed on days 12 through 28.
# Forty-eight male Syrian Golden Hamsters were divided randomly into 6 groups of 8 animals and given an acute radiation dose of 40 Gy directed to their left buccal cheek pouch. This was accomplished by anesthetizing the animals and everting the left buccal pouch, while protecting the rest of the animal with a lead shield. Test materials were given topically or by ip injection twice daily as detailed in Table 1. Mucositis was evaluated clinically starting on Day 6, and continued on alternate days until day 28.
# The grade of mucositis was scored, beginning on day 6, and for every second day thereafter, through and including day 28 (for scoring scheme, see Table 2 and FIG. 2). The effect on mucositis of each drug treatment compared to ip vehicle-treated controls was assessed according to the following parameters:
# The difference in the number of days hamsters in each group have ulcerative (score≧3) mucositis.
# On each evaluation day, the number of animals with a blinded mucositis score of ≧3 in each drug treatment group was compared to the vehicle-treated control group. Differences were compared on a cumulative basis and statistical significance was determined by chi-square analysis. Efficacy, in this analysis, is defined as a significant reduction in the number of days that a group of animals had ulcerations (scores ≧3) when compared to the control group.
# For each evaluation day the scores of the control group were compared to those of the treated groups using non-parametric rank sum analysis. Treatment success was considered as a statistically significant lowering of scores in the treated group on 2 or more days from day 6 to day 28.
# All forty-eight (48) male Syrian Golden Hamsters were given an acute radiation dose of 40 Gy directed to their left buccal cheek pouch. This was accomplished by anesthetizing the animals and everting the left buccal pouch, while protecting the rest of the animal with a lead shield. Test materials were given either topically or by ip injection twice daily as detailed in Table 1. Mucositis was evaluated clinically starting on day 6, and continuing on alternate days until day 28. The study timeline is depicted in FIG. 1. Dose levels were determined based on the results of a previous acute toxicity study (data not shown), and the levels shown in Table 1.
# Mucositis was induced using a standardized acute radiation protocol. A single dose of radiation (40 Gy/dose) was administered to all animals on day 0. Radiation was generated with a 250 kilovolt potential (15-ma) source at a focal distance of 50 cm, hardened with a 0.35 mm Cu filtration system. Irradiation targeted the left buccal pouch mucosa at a rate of 3.2 Gy/minute. Prior to irradiation, animals were anesthetized with an intra-peritoneal injection of Ketamine (160 mg/kg) and Xylazine (8 mg/kg). […]
# [1] = group 2: ip 3 mg/kg bid day −1 to 15
# [2] = group 3: ip 30 mg/kg bid day −1 to 15
# [3] = group 4: top 3 mg/ml bid, 0.2 ml per dose, day −1 to 15
# [4] = group 5: top 30 mg/ml bid, 0.2 ml per dose, day −1 to 15
# [5] = group 6: ip 30 mg/kg bid day −1 to 3
structure (smiles),measurement,setting,value
[Cl-].[Cl-].[Mn+2].c1cc2nc(c1)CN[C@@H]1CCCC[C@H]1NCCN[C@@H]1CCCC[C@H]1NC2 [M40403],"Chi Sq v control, days with mucositis score >=3",[1],0.3440
same,Days <3 (animal days with a mucositis score below 3),[1],126
same,Days >=3 (animal days with a mucositis score of 3 or more),[1],66
same,day of peak mucositis score,[1],18 days
same,peak mucositis score (mean daily score),[1],2.8
same,progression of mucositis severity compared with control group,[1],very similar to that observed in the control group
same,"Chi Sq v control, days with mucositis score >=3",[2],0.9890
same,Days <3 (animal days with a mucositis score below 3),[2],96
same,Days >=3 (animal days with a mucositis score of 3 or more),[2],56
same,day of peak mucositis score,[2],18 days
same,peak mucositis score (mean daily score),[2],3.0
same,progression of mucositis severity compared with control group,[2],indistinguishable from that observed in groups 1 and 2
same,progression of mucositis severity compared with control group,group 4: top 3 mg/ml bid day −1 to 15,closely paralleled those in the control group
same,"Chi Sq v control, days with mucositis score >=3",[3],1.6760
same,Days <3 (animal days with a mucositis score below 3),[3],119
same,Days >=3 (animal days with a mucositis score of 3 or more),[3],73
same,progression of mucositis severity compared with control group,group 5: top 30 mg/ml bid day −1 to 15,showed a reduction of mucositis severity on day 10; also recorded: only slightly less than those in the control group
same,"Chi Sq v control, days with mucositis score >=3",[4],0.136
same,Days <3 (animal days with a mucositis score below 3),[4],128
same,Days >=3 (animal days with a mucositis score of 3 or more),[4],64
same,"Chi Sq v control, days with mucositis score >=3",[5],7.83
same,Days <3 (animal days with a mucositis score below 3),[5],120
same,Days >=3 (animal days with a mucositis score of 3 or more),[5],24
same,day of peak mucositis score,[5],14 days
same,peak mucositis score (mean daily score),[5],3.0
same,progression of mucositis severity compared with control group,"group 6: ip 30 mg/kg bid day −1 to 3, from day 16 to day 28",decreased much more rapidly than the control group
same,effect of topical dosing on weight and mucositis severity,"topical dosing, 3 or 30 mg/ml bid day −1 to 15, formulation used here",did not appear to have any effect on either weight or mucositis severity
